According to patent US7368267B2, “Method for the oxidation of aromatic compounds” (BASF Aktiengesellschaft, priority 2001, dated 2008):
Like-named read-outs stand apart in the source and are kept apart here.

How the values were obtained:
E. coli [1] = test: Toxic / inhibitory effect of substrate, products and organic phase on biomass growth of the cells; conditions: in the aqueous phase
[2] = Partition coefficients in DOP/M9 (glucose) biphasic system; format: physicochemical
E coli = conditions: at a pH of 7; cited from earlier work
E. coli [3] = system: E. coli
[4] = concentration in organic phase (dioctyl phthalate) relative to aqueous phase (M9 medium, glucose), triplicate

Compound	Partition coefficient [2, 4]	concentration which inhibits biomass growth (E. coli [1]) [µM]	also measured
pseudocumene (trimethylbenzene)	24300 ± 1500		concentration above which it is toxic to the cells (E. coli [1]): 15-25%
CC(=O)O [acetic acid]			concentration with inhibitory effect on cell growth (E coli): 5000 µg/mL
Cc1ccc(CO)cc1C [3,4-Dimethylbenzyl alcohol, 3,4-dimethylbenzyl alcohol]	50 ± 3	100000	concentration above which it has a toxic effect on the cells (E. coli [1]): > 100000 µM
Cc1ccc(C(=O)O)cc1C [3,4-Dimethylbenzoic acid, 3,4-dimethylbenzoic acid]			concentration which inhibits biomass growth (E. coli [3]): 16000 µM; Partition coefficient [2]: 0.188 ± 0.005
Cc1ccc(C=O)cc1C [3,4-Dimethylbenzaldehyde, 3,4-dimethylbenzaldehyde]	906 ± 20	1.812e+06	
